Experiments:
splenocytes [1] = test: Melittin binding study with rhodamine-bound melittin in splenocytes; assay type: cell-based, mice
Protocol: After 1 hour, cells were harvested and the non-binding peptides were washed twice.
Next, the cells were cultured with rhodamine-bound peptides and stained with CD11b-APC antibodies as described above.
Annexin-V was added to a sample before data collection to distinguish dead cells. […] tumor-associated macrophage was stained with CD86-PEcy7 (e-bioscience) or CD206-PercpCy5.5 (Biolegend). The cells were detected in FACS Calibur or FACS CantoII.

[2] = system: bone marrow-derived macrophages; test: Phagocytosis assay with latex bead-FITC; assay type: cell-based, mouse; conditions: vs control group
Protocol: Cells were smeared in a 96-assay well plate and treated as described above. The cells were pretreated for 30 minutes with or without cytochalasin D before treatment with latex bead-FITC (Sigma-Aldrich). After 2 hours of incubation, the cells were washed with PBS three times to remove foreign particles. Fluorescence of internalized beads was measured using emission of 527 nm after excitation of 485 nm in a fluorescent plate reader (Fluorskan Ascent FL) quenching with trypan blue.

[3] = system: Lewis lung carcinoma cells; test: Tumor growth and survival in mice injected subcutaneously with Lewis lung carcinoma cells; assay type: in vivo, C57BL/6 mice
Protocol: A cancer growth rate in the control group was fast, but the cancer growth in the melittin-treated group was late.
(§1) Lewis lung carcinoma cells were mixed with a Matrigel matrix (Coming, N.Y., USA) to generate a tumor model. Male C57BL/6 wild-type mice (6 to 8 weeks old) were inoculated subcutaneously in the right flank with 5×10^4 cells per mouse. […] Before 3 days of tumor injection, macrophage deficiency was performed by clodronate liposomes (first dose of 200 μl per mouse, maintenance dose of 100 μl intraperitoneally every 4 days). Clodronate liposome and control liposome were purchased from FormuMax (Sunnyvale, Calif., USA). A tumor size was monitored every 2 to 3 days by measuring two opposite diameters (volume=length×width×width/2). If the tumor size exceeded 5% of the body weight, the mice were sacrificed for a next experiment set. Thereafter, the tumor and the spleen were surgically removed.

[4] = Body weight of tumor-bearing mice; assay type: in vivo
Protocol: The weights of mice were measured every 2 to 3 days until 0 to 18 days.

[5] = Blood cell profile test (hematological profiling); assay type: in vivo, mice
Protocol: The blood was collected from the retro-orbital plexus of mice under anesthesia. The blood was immediately mixed with EDTA and analyzed by a Hemavet 950 auto-sampler (Drew scientific, Waterbury, Conn., USA) according to manufacturer's instructions. The parameters of leukocytes, erythrocytes, and platelets were measured and expressed as a percentage.
The blood was collected via the retro-orbital plexus during anesthesia.

lung cancer cells = test: Cell cycle analysis by PI staining and flow cytometry; assay type: cell-based; conditions: 0.1 to 2 μg/mL melittin
Protocol: The cells were collected, washed twice with PBS, fixed with 70% pre-cooled ethanol and stored at −20° C. overnight. The cells were washed and resuspended in PBS 500 μl containing 0.1% Triton X-100 and RNase 20 μg/ml. Next, 50 μg/ml of propidium iodide (PI) was added. Stained cells were cultured at 37° C. for 20 minutes and then detected by a FACS Calibur flow cytometer (Becton Dickinson, San Jose, Calif., USA). Data were analyzed by Flow Jo software (Treestar, Inc., San Carlos, Calif., USA).

splenocytes [6] = test: Flow cytometry of immune cells in splenocytes of tumor-bearing mice; assay type: in vivo
Protocol: (§2) A tissue was dissociated by cutting the tumor into thin pieces and gently stirring in DNase I (1 U/ml; Roche, Indianapolis, trypsin-EDTA (Gibco)) under DMEM (Welgene) preheated at 37° C. for 1 hour. The tissue was mechanically dissociated in a 100 μm nylon mesh strainer, then single cells passed through a 40 μm nylon mesh strainer, and the spleen was mechanically dissociated with a 40 μm nylon mesh strainer. RBC was dissolved for 5 minutes in a 1× pharmlyse buffer.
(§3) The cells were stained with fluorescent tag antibodies. All data were detected by a FACS Calibur flow cytometer and analyzed with FlowJo software. CD45-FITC, CD3-FITC, CD4-PE, CD4-FITC, CD8-APC, CD11b-APC, CD11 c-PE, CD25 (CD12-FITC)-PE, CD25-APC, B220-FITC, CD19-PE, CD86-APC, and Foxp3-Alexa Fluor647 were purchased from BD bioscience and F4/80-PE and CD206-APC were purchased from Biolegend (San Diego, Calif., USA).
as §1
Screening of the immune cells was performed by flow cytometry on CD4^+ T cells, CD8^+ T cells, B cells, dendritic cells, and macrophages from splenocytes of mice with cancer. The flow cytometry was performed in the same manner as Example 3-2.

[7] = system: tumor-associated macrophages (TAM); test: Flow cytometry of tumor-associated macrophages in tumor tissue; assay type: in vivo, mice
Protocol: as §2, §3, §1

[8] = system: bone marrow-derived macrophages (BMDM); test: Quantitative real-time PCR in bone marrow-derived macrophages; assay type: cell-based, mouse
Protocol: (§4) Cells were harvested as previously described to generate mouse bone marrow-derived macrophages. The cells were cultured for 7 days in an RPMI-1640 complete culture medium containing 10 ng/ml of mouse recombinant M-CSF (R & D systems, Minneapolis, Minn., USA). After the cells were differentiated into M0 macrophages, the cells were smeared in a 6-well plate (1×10^6 cells/well) and cultured overnight under 100 ng/ml LPS or 20 ng/ml mouse recombinant IL-4 (R & D system) to induce differentiation of M1 or M2 phenotype macrophages.
(§5) Quantitative real time PCR was performed according to previous reports. Data were expressed as […] for experimental genes, normalized to GAPDH, and expressed as a fold change compared to an LPS or IL-4 untreated control group. The following primers were used: Gapdh(for: […] (SEC) ID NO: 1); rev: […] (SEQ ID NO: 2)), Tnf-α(for: TTCTG […] (SEQ ID NO: 3); rev: GTAT […] (SEQ ID NO: 4), Mrc1/CD206(for: […] (SEQ ID NO: 5); rev: GGTT […] (SEQ ID NO: 6)), I1-10(for: […] (SEQ ID NO: 7); rev: […] (SEQ ID NO: 8)), Tgf-β(for: […] (SEQ ID NO: 9); rev: […] (SEQ ID NO: 10)), Vegf(for: GGAGA […] (SEQ ID NO: 11); rev: […](SEQ ID NO: 12)), F1t1/VEGFR1(for: […] (SEQ. ID NO: 13); rev: […] (SEQ ID NO: 14)).

[9] = system: Lewis lung carcinoma cells; test: Quantitative real-time PCR in Lewis lung carcinoma cells; assay type: cell-based; conditions: control vs melittin-treated
Protocol: as §5

[10] = system: bone marrow-derived macrophages (BMDM); test: ELISA of cytokines in BMDM culture supernatant; assay type: cell-based, mouse
Protocol: as §4
The secretion of cytokine from the culture medium was analyzed using an ELISA kit according to a procedure recommended by a provider. Mouse IL-10 and
TNF-α were purchased from BD Biosciences, and TGF-β was purchased from R & D systems. Results were expressed as pg of normalized cytokine per mg of total protein.

[11] = system: bone marrow-derived macrophages (BMDM); test: Western blot analysis of BMDM; assay type: cell-based, mouse
Protocol: as §4
Total proteins were extracted using a RIPA buffer from melittin or PBS treated-bone marrow-derived macrophages and quantified by Bio-Rad analysis. 20 μg of protein was isolated on an 8% SDS Tris-glycine gel and transferred to a nitro cellulose cell membrane (Invitrogen). The following antibodies and dilution factors were used: VEGF goat polyclonal antibody (sc-1836, 1:1000, Santa Cruz), actin goat polyclonal antibody (sc-1616, 1:1000, Santa Cruz), […] CD206 (MCA2235GA 1:200, AbD serotec), anti-goat IgG conjugated to HRP (SA007, 1:1000, GenDEPOT), and anti-rat IgG bound to HRP (405405, 1:1000, Biolegend). Protein bands were visualized using an ECL solution (GE healthcare) and measured with Image J software. The strength of the protein has been normalized above that of actin.

[12] = system: M1-type bone marrow-derived macrophages; test: Intracellular ROS production by H2DCFDA staining; assay type: cell-based, mouse; conditions: melittin-treated vs control, 24 hours
Protocol: The cells were added with 5 μM C2′,7′-dichlorodihydrofluorescein diacetate (H2DCFDA; molecular probe) and cultured at 37° C. for 30 minutes. The H2DCFDA-containing medium was removed and the cells were washed twice with preheated PBS. After the cells were collected, ROS production levels were immediately analyzed using flow cytometry.

tumor tissue = test: Immunofluorescence confocal microscopy of VEGF and CD31 in tumor tissue; assay type: in vivo, mice
Protocol: The tumor of inoculated mice was fixed overnight with paraformaldehyde, dehydrated, and then placed in paraffin. Slices (5 μm thick) of the inserted tissue were cut in a rotary microtome and deparaffinized. The antigens of the slides were recovered by an autoclave in a trisodium citrate buffer (pH 6) for 1 minute, washed with PBS and then blocked for 1 hour with 1.5% BSA containing 0.2% Triton X-100. The slides were cultured overnight at 4° C. with anti-VEGF and anti-CD31 primary antibodies (1:200, Santa Cruz Biotechnology, Santa Cruz, Calif., USA).
All tissue slices were cultured at room temperature for 1 hour and then visualized with an alexa-488 or alexa-594 conjugated secondary antibody (1:500, Invitrogen). All the antibodies were diluted with a 0.5% BSA solution and cultured in a wet chamber. The slides were fixed with a DAPI solution and analyzed by laser scanning confocal microscopy (Bio-Rad, Richmond, Calif., USA). All images were captured with LSM and total integration density was measured with image J software.

[13] = melittin-treated tumor-bearing mice

Structure (SMILES): C=C1[C@@H](C)[C@H]2[C@H](Cc3ccccc3)NC(=O)[C@]23[C@H](OC(C)=O)/C=C/[C@@](C)(O)C(=O)[C@@H](C)C/C=C/[C@H]3[C@@H]1O [cytochalasin D, reference compound]
- melittin+CD11b+ double positive cells in total CD11b+ cell population (splenocytes [1]; 10 nM cytochalasin D pretreatment vs DMSO control): no difference
- phagocytic capacity / phagocytosis index [2]: significantly lowered

Structure (SMILES): CC[C@H](C)[C@H](NC(=O)CN)C(=O)NCC(=O)N[C@@H](C)C(=O)N[C@H](C(=O)N[C@@H](CC(C)C)C(=O)N[C@@H](CCCCN)C(=O)N[C@H](C(=O)N[C@@H](CC(C)C)C(=O)N[C@H](C(=O)N[C@H](C(=O)NCC(=O)N[C@@H](CC(C)C)C(=O)N1CCC[C@H]1C(=O)N[C@@H](C)C(=O)N[C@@H](CC(C)C)C(=O)N[C@H](C(=O)N[C@@H](CO)C(=O)N[C@@H](Cc1c[nH]c2ccccc12)C(=O)N[C@H](C(=O)N[C@@H](CCCCN)C(=O)N[C@@H](CCCNC(=N)N)C(=O)N[C@@H](CCCCN)C(=O)N[C@@H](CCCNC(=N)N)C(=O)N[C@@H](CCC(N)=O)C(=O)N[C@@H](CCC(N)=O)C(N)=O)[C@@H](C)CC)[C@@H](C)CC)[C@@H](C)O)[C@@H](C)O)C(C)C)C(C)C [melittin]
- cancer growth reduced compared to the control group ([3]; 0.5 mg/kg melittin peptide intraperitoneal, after 13 days of administration): 40%
- cancer growth suppressed compared to the control group ([3]; 0.5 mg/kg melittin peptide intraperitoneal, day 15): about 45%
- survival period vs control group (PBS-treated), Mantel-Cox analysis ([3]; tumor-bearing mice): significantly longer
- weight of mice ([4]; day 0): 22.84±0.36
- weight of mice ([4]; day 18): 24.72±0.45
- weight loss ([4]; measured every 2 to 3 days, 0 to 18 days): no weight loss
- hematological factors (WBC, RBC, Hgb, HCT, MCV and MCH) ([5]; 0.5 mg/kg or 1 mg/kg melittin): did not result in significant changes
- acute cytotoxic damage ([5]; judged from N/L ratio): does not cause acute cytotoxic damage
- direct killing effect on cancer cells (lung cancer cells): no direct killing effect
- percentage of cells at each cell cycle stage (lung cancer cells; 24 hours): no percentage change
- other immune cells from total splenocytes (splenocytes [6]; control vs melittin-treated groups): no percentage change
- CD45+F480+ macrophages in splenocytes (splenocytes [6]; [13]): 5.10±0.42
- number of regulatory T cells in splenocytes (splenocytes [6]; [13]): decreased slightly
- level of M1 or M2 type macrophages in splenocytes (splenocytes [6]; spleen): not changed
- percentage of CD11b+F4/80+ macrophages in CD45+ tumor-infiltrating leukocytes [7, 13]: 38.70±0.79%
- number of F4/80+CD86+ in CD45+ cells ([7]; tumor, M1-type): not increased
- percentage of F4/80+CD206+ in CD45+ cells ([7]; tumor, M2-type): 9.53±0.63%
- melittin binding in CD11b+ cells (splenocytes [1]; 0.5 μg/ml rhodamine-bound melittin, 1 hour): approximately 16%
- percentage of melittin+CD86+ population in F4/80+ cells (splenocytes [1]; M1 type): 3.27±0.39%
- percentage of melittin and CD206 double positive population in F4/80+ cells (splenocytes [1]; M2 type): 9.15±1.05%
- melittin binding to DC (CD11c) (splenocytes [1]; rhodamine-bound melittin): 24.44±0.56
- melittin binding to macrophages (F4/80) in annexinli-CD11b+ melittin+ cells (splenocytes [1]; rhodamine-bound melittin): 67.70±2.96
- melittin binding to neutrophils (Gr-1) (splenocytes [1]; rhodamine-bound melittin): 36.36±0.95
- gene level of TNF-α ([8]; LPS stimulation): did not affect
- gene expression level of IL-10 ([8]; M2-type BMDM (IL-4)): not changed
- gene expression level of TGF-β ([8]; M2-type BMDM (IL-4)): not changed
- mRNA level for Mrc1/Cd206 compared to the control group ([8]; M2-type BMDM (IL-4)): significantly reduced
- mRNA level for Vegf compared to the control group ([8]; M2-type BMDM (IL-4)): significantly reduced
- mRNA level of Vegf [9]: no large difference
- mRNA level of flt1/VFGFR [9]: no large difference
- protein level of TNF-α ([10]; LPS stimulation): did not affect
- protein expression level of IL-10 ([10]; M2-type BMDM (IL-4)): not changed
- protein expression level of TGF-β ([10]; M2-type BMDM (IL-4)): not changed
- expression level of CD206 protein [11]: reduced
- expression level of VEGF protein [11]: reduced
- intracellular ROS levels [12]: no difference
- integrated density of VEGF (image J) (tumor tissue; 0.5 mg/kg and 1 mg/kg vs PBS control group): significant difference
- level of CD31 by immunofluorescence staining (tumor tissue; compared to a PBS group): decrease
- level of VEGF by immunofluorescence staining (tumor tissue; compared to a PBS group): decrease
